According to patent US7879861B2, “Combi-molecules having EGFR and DNA targeting properties” (priority 2005, dated 2011):
Where two headings read alike, the source gives them in different places.

Legend:
MDA-MB-453 cells = experiment: Reversibility of antiproliferative effect, SRB assay; assay type: cell-based, human
Method: (§1) In vitro growth inhibition assay: To study the effect of the compounds on growth factor stimulated-proliferation, cells were grown to 70% of confluence in 48-well plates. […] Cell growth was measured using the sulforhodamine B (SRB) assay (24). Briefly, following drug treatment, cells were fixed using 50 μl of cold trichloroacetic acid (50%) for 60 min at 4° C., washed five times with tap water, and stained for 30 min at room temperature with SRB (0.4%) and dissolved in acetic acid (0.5%). The plates were rinsed five times with 1% acetic acid and allowed to air dry. The resulting colored residue was dissolved in 200 μl of Tris base (10 mM), and the optical density read for each well at 450 nm using a Bio-Rad microplate reader (model 2550). […] Cell growth was measured using SRB assay as described previously.

MDA-MB-468 cells = experiment: as above; assay type: cell-based, human
Method: as §1

`ClCCNc1ccc2ncnc(Nc3cccc(Br)c3)c2c1` [ZR2002] gave an IC50 (MDA-MB-453 cells; Homo sapiens, MDA-MB-453, 120 h, read-out: IC50, growth inhibition, 120 h continuous exposure, MDA-MB-453, SRB) of 430 nM, an IC50 (MDA-MB-453 cells; Homo sapiens, MDA-MB-453, read-out: IC50, growth inhibition, 2 h exposure followed by 120 h recovery, MDA-MB-453, SRB) of 4170 nM and an IC50 (MDA-MB-453 cells; read-out: IC50, growth inhibition, 2 h exposure followed by 120 h recovery, MDA-MB-453, SRB) of 4170 nM. The IC50 (MDA-MB-453 cells; read-out: IC50, growth inhibition, 120 h continuous exposure, MDA-MB-453, SRB) was 426 nM, the IC50 (MDA-MB-468 cells; Homo sapiens, MDA-MB-468, 120 h, read-out: IC50, growth inhibition, 120 h continuous exposure, MDA-MB-468, SRB) was 360 nM and the IC50 (MDA-MB-468 cells; Homo sapiens, MDA-MB-468, read-out: IC50, growth inhibition, 2 h exposure followed by 120 h recovery, MDA-MB-468, SRB) was 7400 nM. It also gave an IC50 (MDA-MB-468 cells; read-out: IC50, growth inhibition, 2 h exposure followed by 120 h recovery, MDA-MB-468, SRB) of 5160 nM and an IC50 (MDA-MB-468 cells; read-out: IC50, growth inhibition, 120 h continuous exposure, MDA-MB-468, SRB) of 234 nM.
